Test results reported in patent US11898187B2 (priority 2017, dated 2024).

Molecular target: T1, NGT (Actinobacillus pleuropneumoniae serotype 5b, UniProt A3N2T3)
Assay: not given
Assay type: biochemical
Settings: 5 μM Im7 variant, 0.1 μM NGT, 2.5 mM UDP-Glc, 2.5 h, 30° C.

T1 sequence (A3N2T3 whole entry): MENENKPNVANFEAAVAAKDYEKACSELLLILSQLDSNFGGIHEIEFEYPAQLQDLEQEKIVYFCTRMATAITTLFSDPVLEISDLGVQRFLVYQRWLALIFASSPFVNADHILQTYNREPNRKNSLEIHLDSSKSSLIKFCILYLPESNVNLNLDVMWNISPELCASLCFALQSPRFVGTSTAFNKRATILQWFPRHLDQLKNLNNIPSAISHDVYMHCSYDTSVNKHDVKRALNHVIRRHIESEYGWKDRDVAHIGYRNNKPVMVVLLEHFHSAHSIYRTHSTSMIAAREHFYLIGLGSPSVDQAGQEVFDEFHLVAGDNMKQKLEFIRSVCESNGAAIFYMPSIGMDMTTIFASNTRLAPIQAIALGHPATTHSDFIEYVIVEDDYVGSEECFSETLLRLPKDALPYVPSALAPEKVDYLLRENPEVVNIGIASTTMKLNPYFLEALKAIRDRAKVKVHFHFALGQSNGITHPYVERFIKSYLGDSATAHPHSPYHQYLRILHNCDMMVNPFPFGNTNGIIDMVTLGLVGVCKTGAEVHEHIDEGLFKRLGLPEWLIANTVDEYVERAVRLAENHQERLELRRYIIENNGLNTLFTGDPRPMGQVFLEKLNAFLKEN

GGNWTT was tested, and the “glycosylation of Im7 variant” value was “most efficient modification within the Im7 protein”.

Molecular target: N-glycosyltransferase from Actinobacillus pleuropneumoniae (Actinobacillus pleuropneumoniae serotype 5b, UniProt A3N2T3)
Assay: GlycoSCORES: peptide glycosylation by NGT, read by SAMDI-MS
Assay type: biochemical
Settings: 50 μM peptide, 2.5 mM UDP-Glc, 0.5 μM purified NGT, 30° C., 3 h

Sequence of N-glycosyltransferase from Actinobacillus pleuropneumoniae (A3N2T3 whole entry): as above

For CNAT, the “glucose modification of truncated GSDQNATF peptides” value was “could be modified by NGT”.
With QNATFC the “glucose modification of truncated GSDQNATF peptides” value was “most efficient glucose modification”.

Same assay, conditions: 4-mer peptides, fraction modified (0-1)

In order of rising “MO[…]” value:
1. QNVT  0.5056
2. DNVT  0.5073
3. TNHS  0.5091
4. SNST  0.5156
5. GNYT  0.5195
6. MNIS  0.5286
7. LNIT  0.5288
8. ANMS  0.5336
9. SNTT  0.5496
10. MNTT  0.5502
11. MNMT  0.5547
12. SNHS  0.5937
13. ENST  0.6042
14. GNVS  0.6117
15. SNYT  0.6177
16. PNMS  0.636
17. TNST  0.6424
18. ENVS  0.6584
19. LNVT  0.6724
20. MNRT  0.6724
21. HNHS  0.6747
22. PNYS  0.6762
23. MNHS  0.6816
24. SNRT  0.6821
25. NNHS  0.6848
26. VNIT  0.6873
27. INVT  0.6893
28. ANHS  0.6918
29. WNRT  0.6933
30. ANLT  0.6957
31. HNRT  0.6962
32. ANYS  0.6975
33. VNAT  0.6982
34. PNHS  0.6988
35. HNIS  0.704
36. NNVS  0.7147
37. GNWS  0.72
38. ENRT  0.7271
39. DNHT  0.7287
40. MNIT  0.7393
41. HNAT  0.7427
42. SNIT  0.7453
43. WNIS  0.746
44. ENHT  0.7656
45. NNAT  0.7664
46. NNRT  0.7671
47. TNAT  0.7761
48. ANST  0.7846
49. GNHT  0.7856
50. ANTT  0.7872
51. MNAT  0.7903
52. VNVT  0.8081
53. ANRT  0.8206
54. PNLT  0.8254
55. PNST  0.8271
56. WNHT  0.8335
57. MNVT  0.8374
58. SNAT  0.8383
59. PNMT  0.8399
60. PNFT  0.8402
61. HNIT  0.8411
62. TNHT  0.8444
63. PNTT  0.8532
64. MNHT  0.855
65. WNAT  0.8599
66. NNHT  0.8624
67. ANFT  0.8633
68. PNRT  0.8662
69. ANIS  0.8694
70. TNVS  0.8695
71. PNIS  0.8821
72. GNVT  0.8843
73. ENVT  0.8903
74. PNAT  0.8919
75. PNYT  0.8963
76. SNHT  0.906
77. TNVT  0.9096
78. ANYT  0.91
79. ANAT  0.9101
80. MNVS  0.9118
81. HNVS  0.9185
82. WNIT  0.9275
83. PNIT  0.9358
84. PNVS  0.9374
85. GNWT  0.9409
86. SNVT  0.9488
87. ANVS  0.9611
88. SNVS  0.971
89. PNVT  0.9741
90. ANVT  0.9844

Same assay, conditions: 6-mer sequences in GlycoSCORES peptide screens; 50 μM peptide, 2.5 mM UDP-Glc, 0.025 μM NGT for 1 h

FANATT was tested, and the “glycosylation / modification efficiency” value was ~75%.
With YANATS the “glycosylation / modification efficiency” value was ~36%.

Same assay, conditions: CFPS NGT, 50 μM peptide, 2.5 mM UDP-Glc, 30° C.

GGNWTT was tested, and the “modification by NGT in GlycoSCORES peptide screens” value (shortened to “modification by NGT”) was “more efficiently glycosylated than any previously studied”.
GNWTRC was tested, and the “modification by NGT” value was “among the most efficiently glycosylated sequences”.
NHNETD was tested, and the “modification by NGT” value was “no detectable modification”.
YANATT was tested, and the “modification by NGT” value was “efficiently modified”.

Molecular target: T1, NGT
Assay: not given
Assay type: biochemical
Settings: 50 μM peptide, 1 mM sugar donor, purified NGT, 30° C.

For O=c1ccn([C@@H]2O[C@H](COP(=O)(O)OP(=O)(O)O[C@H]3OC[C@@H](O)[C@H](O)[C@H]3O)[C@@H](O)[C@H]2O)c(=O)[nH]1 [UDP-Xyl, UDP-xylose], the “efficiency of sugar transfer by NGT” value was “much lower efficiencies”.

Molecular target: T1, NGT
Assay: not given
Assay type: cell-based
Settings: BL21(DE3) E. coli; Fc induced 2 h, then NGT 30 min

With GGNWTT the “glycosylation of Fc variant in E. coli cytoplasm” value was “most efficient glycosylation”.

Same assay, conditions: GlycTag at Asn1366; HMW1ct induced 1 h, then NGT 2 h

In the case of GGNWTT, the “modification of HMW1ct variant in E. coli cytoplasm” value is reported as “highest modification”.
